Data from patent US8124655B2, “Use of LR-90 and LR-102 to overcome insulin resistance” (City of Hope, priority 2007, dated 2012).

Tests used:
[1] = test system: Zucker diabetic fatty rats (ZDF, fa/fa); assay: Metabolic data of ZDF rats treated with LR-90 or LR-102 (Example 2); type: in vivo, rat; details: ZDF rats at 40 weeks of age, Mean ± SEM
Method: The present Example presents the results of an investigation of the effects of LR-90, an inhibitor of AGE/ALE formation, in male Zucker diabetic fatty rats (ZDF, fa/fa) fed with Purina 5008 diet until 40 weeks of age, and their hetorozygous lean littermates (ZDF fa/+) as non-hyperglycemic controls. LR-90 at 50 mg/L of drinking water was given to a subgroup of ZDF rats after the rats developed spontaneous diabetes at 13 weeks of age. At 40 weeks of age, and before killing the animals, their weight was measured; HbA1c, plasma glucose, insulin, triglycerides, cholesterol, CRP and urinary albumin and creatinine concentrations were measured. After euthanizing all animals, organs such as the kidneys, eyeballs, liver, heart, aortae and pancreas were dissected and subjected to immunohistochemical staining, RT-PCR, Western blotting and microscopy.

[2] = test system: Zucker diabetic fatty rats (ZDF, fa/fa); assay: Pancreatic islet immunohistochemistry and PAMS staining (Example 2); type: in vivo, rat; details: FIG. 8
Excerpt: FIG. 7. Immunohistochemical analysis and quantification of islet cells. ZDF GM fa/fa rats and lean control rats were fed with high fat diet for 30 weeks and received either nothing or LR-90 or LR-102 in their drinking water. Pancreatic sections from various groups of animals were stained with anti-insulin antibody or anti-glucagon antibody. A. Representative images with the overlay of the insulin (green) and glucagon (red staining). […] B. Insulin-positive β-cell-to-glucagon-ratio was also measured from these images.
FIG. 8. Periodic acid methenamine silver (PAMS) staining of pancreatic tissues. Sections from cryopreserved pancreas of each group of animals on the study were stained with PAMS and examined under light microscopy.
LR-90 at 50 mg/L of drinking water was given to a subgroup of ZDF rats after the rats developed spontaneous diabetes at 13 weeks of age. At 40 weeks of age, and before killing the animals, their weight was measured; HbA1c, plasma glucose, insulin, triglycerides, cholesterol, CRP and urinary albumin and creatinine concentrations were measured. After euthanizing all animals, organs such as the kidneys, eyeballs, liver, heart, aortae and pancreas were dissected and subjected to immunohistochemical staining, RT-PCR, Western blotting and microscopy.

[3] = described in U.S. Pat. No. 6,787,566; cited from earlier work

CC(C)(Oc1ccc(N=Cc2ccc(C=Nc3ccc(OC(C)(C)C(=O)O)cc3)cc2)cc1)C(=O)O [LR-102, 1,4-benzene-bis[4-methyleneaminophenoxyisobutyric acid]]
Plasma glucose ([1]; drug in drinking water): 29.8 ± 3.2 mmol/dL
Cholesterol [1]: 290 ± 35 mg/dL
HbA1c [1]: 2.80 ± 0.12%
Plasma CRP [1]: 0.77 ± 0.05 mg/mL
Plasma insulin, ELISA [1]: 0.68 ± 0.10 ng/mL
Plasma insulin, RIA [1]: 0.65 ± 0.10 ng/mL
Triglycerides [1]: 536 ± 63 mg/dL
Urinary Albumin [1]: 35.4 ± 15.8 mg/24 h
PAMS staining of pancreatic islets [2]: amelioration
breaking AGE-protein cross-links [3]: active
